Test results: publication PMC6522912, “Evaluation of the published kinase inhibitor set to identify multiple inhibitors of bacterial ATP-dependent mur ligases” (Journal of Enzyme Inhibition and Medicinal Chemistry, 2019)
Read-outs that look alike come from different tables or passages of the source.

Legend:
E. coli MurC = E. coli MurC (Escherichia coli, UniProt P17952); experiment: Malachite green inhibition assay, MurC; type: biochemical; conditions: for remaining activity at 100 µM: 0.25 h; for IC50 / MurC RA [%]: Table 1; for IC50: read-out: MurC IC50; for MurC RA [%]: residual activity at 100 µM compound
E. coli MurC, sequence (P17952 whole entry): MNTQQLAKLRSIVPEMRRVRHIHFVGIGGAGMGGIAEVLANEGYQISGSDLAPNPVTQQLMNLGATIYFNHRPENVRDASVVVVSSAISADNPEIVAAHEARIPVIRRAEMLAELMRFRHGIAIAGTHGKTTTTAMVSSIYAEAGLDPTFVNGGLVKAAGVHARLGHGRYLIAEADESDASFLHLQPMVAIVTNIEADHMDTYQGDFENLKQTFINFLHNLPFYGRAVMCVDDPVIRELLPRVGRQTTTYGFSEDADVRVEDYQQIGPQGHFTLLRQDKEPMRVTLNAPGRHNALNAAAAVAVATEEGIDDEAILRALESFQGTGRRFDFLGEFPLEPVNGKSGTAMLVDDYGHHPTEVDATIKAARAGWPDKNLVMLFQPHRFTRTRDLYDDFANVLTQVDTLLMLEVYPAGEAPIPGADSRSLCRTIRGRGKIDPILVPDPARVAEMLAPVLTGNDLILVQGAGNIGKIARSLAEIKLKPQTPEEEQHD

E. coli MurD = E. coli MurD (Escherichia coli, UniProt P14900); experiment: biochemical; conditions: for remaining activity at 100 µM: 0.25 h, Table S1, PKIS screening, read-out: RA [%] at 100 µM MurD; for LE (MurD): ligand efficiency, LE = (1.37 × pIC50)/HAC; for MurD RA [%]: residual activity at 100 µM compound
E. coli MurD, sequence (P14900 whole entry): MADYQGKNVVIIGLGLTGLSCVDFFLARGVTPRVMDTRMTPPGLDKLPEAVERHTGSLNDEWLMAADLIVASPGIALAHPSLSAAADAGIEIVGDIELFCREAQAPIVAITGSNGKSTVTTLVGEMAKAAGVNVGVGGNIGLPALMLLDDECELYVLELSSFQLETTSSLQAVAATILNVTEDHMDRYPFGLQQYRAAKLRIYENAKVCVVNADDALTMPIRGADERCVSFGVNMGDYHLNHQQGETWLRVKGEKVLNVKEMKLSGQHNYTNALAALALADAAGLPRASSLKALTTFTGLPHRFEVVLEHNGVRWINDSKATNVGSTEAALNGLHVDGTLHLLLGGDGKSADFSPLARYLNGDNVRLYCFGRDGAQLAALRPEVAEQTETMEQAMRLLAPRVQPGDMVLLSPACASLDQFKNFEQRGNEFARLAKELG
Outline: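 Reaction 15 min at 37 °C, then phosphate detected with Biomol green at 650 nm. Values are residual activity versus 5% DMSO carrier controls.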

E. coli MurE = E. coli MurE (Escherichia coli, UniProt P22188); experiment: Malachite green inhibition assay, MurE; type: biochemical; conditions: for IC50 / MurE RA [%]: Table 1; for IC50: read-out: MurE IC50; for MurE RA [%]: residual activity at 100 µM compound
E. coli MurE, sequence (P22188 whole entry): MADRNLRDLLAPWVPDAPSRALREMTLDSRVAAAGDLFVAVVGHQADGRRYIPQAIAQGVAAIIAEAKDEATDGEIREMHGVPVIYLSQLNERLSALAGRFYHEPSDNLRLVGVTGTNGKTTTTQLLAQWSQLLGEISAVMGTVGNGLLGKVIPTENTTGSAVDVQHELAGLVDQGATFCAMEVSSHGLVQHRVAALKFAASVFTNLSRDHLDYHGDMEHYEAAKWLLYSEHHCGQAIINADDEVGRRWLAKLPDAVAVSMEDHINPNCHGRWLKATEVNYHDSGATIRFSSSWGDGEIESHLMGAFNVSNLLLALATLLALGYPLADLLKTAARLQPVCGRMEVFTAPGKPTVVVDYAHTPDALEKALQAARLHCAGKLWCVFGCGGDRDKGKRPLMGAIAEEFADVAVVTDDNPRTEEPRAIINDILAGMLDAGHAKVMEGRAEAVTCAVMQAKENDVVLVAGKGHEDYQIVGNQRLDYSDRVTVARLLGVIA
Protocol: Inhibition of the Mur ligases was determined using the malachite green assay, with slight modifications.
MurE: 50 mM Hepes, pH 8.0, 15 mM MgCl2, 0.005% Triton X-114, 60 µM meso-diaminopimelic acid, 100 µM uridine-5′-diphosphate-N-acetylmuramoyl-L-alanine-D-glutamate, 1000 µM ATP, and purified E. coli MurE[27].
In all cases, the final concentration of DMSO was 5% (v/v). After incubation for 15 min at 37 °C, the enzyme reaction was terminated by addition of 100 µM Biomol green reagent, and the absorbance was measured at 650 nm after 5 min. All of the experiments were run in duplicate. Residual activities were calculated with respect to control assays without the tested compounds, but with the 5% DMSO carrier.
The published kinase inhibitor set compounds were evaluated for inhibition of MurC, D and F ligases from E. coli using the Malachite green assay, which detects orthophosphate generated during enzymatic reactions. To avoid non-specific inhibition due to aggregate formation, all of the compounds were tested in the presence of detergent (0.005% Triton-X114). The data are presented as the residual activities of these Mur ligases in the presence of 100 µM of each test compound (Supporting Information Table S1). […]. The IC50 values against MurC, D, E and F were determined for the selected hit compounds – one representative compound from each structural class was chosen: compound 1[33], aza-stilbene derivative; compound 2[34], alkynyl pyrimidine; compound 3[35], pyrazolo [1,5]-b]pyridazine; compound 4[36], phenoxypyrimidine; compound 5[37], 4,6-bis-anilino-1H-pyrrolo[2,3-pyrimidine (Table 1). […]. […] Among the hits, compounds for further mechanistic studies were chosen on the basis of their ligand efficiency. Ligand efficiency quantifies the molecular properties, particularly size and lipophilicity and is used as a selection criterion for structurally different compounds as more ‘efficient’ ligands have the potential to control for the inflation of these properties[38] Thus ligand efficiencies were calculated for the four hits (Supporting Information Table S2)[39]^,[40], and compound 1 was selected as the most promising for additional studies. Additionally, regarding the data of profiled compounds in large panels of human kinase assays[41] […] To provide sufficient amounts of compound 1 for kinetic and NMR studies, it was resynthesized according to the synthetic procedures (Figure 2) described in the literature.

E. coli MurF = E. coli MurF (Escherichia coli, UniProt P11880); experiment: biochemical; conditions: for remaining activity at 100 µM: 0.25 h, read-out: RA [%] at 100 µM MurF; for IC50 / MurF RA [%]: Table 1; for LE (MurF): ligand efficiency, LE = (1.37 × pIC50)/HAC; for MurF RA [%]: residual activity at 100 µM compound
E. coli MurF, sequence (P11880 whole entry): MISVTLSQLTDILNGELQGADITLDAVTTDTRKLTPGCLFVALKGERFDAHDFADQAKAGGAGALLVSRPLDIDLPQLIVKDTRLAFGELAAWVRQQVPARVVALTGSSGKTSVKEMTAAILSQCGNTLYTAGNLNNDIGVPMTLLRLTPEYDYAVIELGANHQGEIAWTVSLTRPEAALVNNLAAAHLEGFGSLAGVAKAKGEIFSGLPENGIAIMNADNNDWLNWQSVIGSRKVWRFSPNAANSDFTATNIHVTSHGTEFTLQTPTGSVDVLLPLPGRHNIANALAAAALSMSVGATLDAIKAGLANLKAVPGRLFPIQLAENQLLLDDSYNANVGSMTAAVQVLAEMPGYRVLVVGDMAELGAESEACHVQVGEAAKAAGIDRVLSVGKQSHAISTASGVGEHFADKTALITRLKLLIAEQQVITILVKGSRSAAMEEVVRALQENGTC

human kinases = conditions: over 200 kinase activity assays and 68 DSF assays; cited from earlier work
[1] = read-out: RA [%] at 100 µM MurC, Table S1, PKIS screening
[2] = Table S1, PKIS screening, read-out: RA [%] at 100 µM MurC

Compound: N#Cc1ccc(Oc2nccc(-c3c(-c4ccc(F)cc4)ncn3C3CCNCC3)n2)cc1 [Compound 4]
- remaining activity at 100 µM (E. coli MurC; [1]): 48%
- IC50 (E. coli MurC): 90 µM
- MurC RA [%] (E. coli MurC): 48%
- remaining activity at 100 µM (E. coli MurD): 27%
- IC50 (E. coli MurD; Table 1, read-out: MurD IC50): 63 µM
- LE (MurD) (E. coli MurD): 0.17
- MurD RA [%] (E. coli MurD; Table 1): 27%
- IC50 (E. coli MurE): 139 µM
- MurE RA [%] (E. coli MurE): 56%
- remaining activity at 100 µM (E. coli MurF; Table S1, PKIS screening): 19%
- IC50 (E. coli MurF): 95 µM
- LE (MurF) (E. coli MurF): 0.17
- MurF RA [%] (E. coli MurF): 51%
- activity at human kinases (human kinases): no appreciable activity

Compound: COc1ccc(-c2nn3ncccc3c2-c2ccnc(Nc3cccc(C(F)(F)F)c3)n2)cc1 [Compound 3]
- remaining activity at 100 µM (E. coli MurC; [1]): 10%
- IC50 (E. coli MurC): 74 µM
- MurC RA [%] (E. coli MurC): 10%
- remaining activity at 100 µM (E. coli MurD): 80%
- residual activity printed in column IC50 MurD (E. coli MurD; Table S2): 83%
- MurD RA [%] (E. coli MurD; Table 1): 83%
- residual activity printed in column IC50 MurE (E. coli MurE; Table S2): 84%
- MurE RA [%] (E. coli MurE): 84%
- remaining activity at 100 µM (E. coli MurF; Table S1, PKIS screening): 35%
- residual activity printed in column IC50 MurF (E. coli MurF; Table S2): 100%
- MurF RA [%] (E. coli MurF): 100%

Compound: CCCN1CCCC(c2ccc(Nc3nc(Nc4cc(F)ccc4C(N)=O)c4cc[nH]c4n3)c(OC)c2)C1 (stereo not drawn) [Compound 5]
- remaining activity at 100 µM (E. coli MurC; [2]): 29%
- IC50 (E. coli MurC): 62 µM
- MurC RA [%] (E. coli MurC): 29%
- remaining activity at 100 µM (E. coli MurD): 10%
- IC50 (E. coli MurD; Table 1, read-out: MurD IC50): 32 µM
- LE (MurD) (E. coli MurD): 0.16
- MurD RA [%] (E. coli MurD; Table 1): 10%
- IC50 (E. coli MurE): 58 µM
- MurE RA [%] (E. coli MurE): 26%
- remaining activity at 100 µM (E. coli MurF; Table S1, PKIS screening): 16%
- IC50 (E. coli MurF): 66 µM
- LE (MurF) (E. coli MurF): 0.15
- MurF RA [%] (E. coli MurF): 16%
- activity at human kinases (human kinases): appreciable activity

Compound: Nc1ccc(C#Cc2cncnc2Nc2ccc(OCc3cccc(F)c3)c(Cl)c2)cc1 [Compound 2]
- remaining activity at 100 µM (E. coli MurC; [2]): 43%
- IC50 (E. coli MurC): 62 µM
- MurC RA [%] (E. coli MurC): 43%
- remaining activity at 100 µM (E. coli MurD): 51%
- IC50 (E. coli MurD; Table 1, read-out: MurD IC50): 104 µM
- LE (MurD) (E. coli MurD): 0.17
- MurD RA [%] (E. coli MurD; Table 1): 51%
- IC50 (E. coli MurE): 157 µM
- MurE RA [%] (E. coli MurE): 50%
- remaining activity at 100 µM (E. coli MurF; Table S1, PKIS screening): 30%
- IC50 (E. coli MurF): 39 µM
- LE (MurF) (E. coli MurF): 0.19
- MurF RA [%] (E. coli MurF): 30%
- activity at human kinases (human kinases): no appreciable activity

Compound: COc1cc2ncn(-c3cc(OCc4ccccc4Cl)c(C(N)=O)s3)c2cc1OC [GW852849X]
- remaining activity at 100 µM (E. coli MurC; [2]): 67%
- remaining activity at 100 µM (E. coli MurD): 81%
- remaining activity at 100 µM (E. coli MurF; Table S1, PKIS screening): 85%

Compound: Nc1nonc1-c1nc2cnccc2n1C1CC1 [SB-736302]
- remaining activity at 100 µM (E. coli MurC; [2]): 92%
- remaining activity at 100 µM (E. coli MurD): 100%
- remaining activity at 100 µM (E. coli MurF; Table S1, PKIS screening): 77%

Compound: C[C@@H](Oc1cc(-n2cnc3ccc(OC4CCN(C)CC4)cc32)sc1C(N)=O)c1ccccc1Cl [GSK579289A]
- remaining activity at 100 µM (E. coli MurC; [2]): 67%
- remaining activity at 100 µM (E. coli MurD): 70%
- remaining activity at 100 µM (E. coli MurF; Table S1, PKIS screening): 66%

Compound: Fc1ccc(-c2nn3ccccc3c2-c2ccncc2)cc1 [GW434756X]
- remaining activity at 100 µM (E. coli MurC; [2]): 74%
- remaining activity at 100 µM (E. coli MurD): 68%
- remaining activity at 100 µM (E. coli MurF; Table S1, PKIS screening): 94%

Compound: COc1ccccc1-c1cc(/C=C2\C(=O)Nc3ncc(Br)cc32)cc(Br)c1O [GW442130X]
- remaining activity at 100 µM (E. coli MurC; [2]): 100%
- remaining activity at 100 µM (E. coli MurD): 84%
- remaining activity at 100 µM (E. coli MurF; Table S1, PKIS screening): 67%

Compound: NC(=O)c1sc(-n2cnc3ccc(C(F)(F)F)cc32)cc1OCc1ccccc1Br [GW853606X]
- remaining activity at 100 µM (E. coli MurC; [2]): 64%
- remaining activity at 100 µM (E. coli MurD): 86%
- remaining activity at 100 µM (E. coli MurF; Table S1, PKIS screening): 75%

Compound: CS(=O)(=O)Nc1ccc(N/C=C2\C(=O)Nc3ccccc32)cc1 [GW278681X]
- remaining activity at 100 µM (E. coli MurC; [2]): 71%
- remaining activity at 100 µM (E. coli MurD): 89%
- remaining activity at 100 µM (E. coli MurF; Table S1, PKIS screening): 77%

Compound: CS(=O)(=O)CCN(CC#N)Cc1ccc(-c2ccc3ncnc(Nc4ccc(OCc5cccc(F)c5)c(Cl)c4)c3c2)o1 [GW616030X]
- remaining activity at 100 µM (E. coli MurC; [2]): 76%
- remaining activity at 100 µM (E. coli MurD): 59%
- remaining activity at 100 µM (E. coli MurF; Table S1, PKIS screening): 80%

Compound: FC(F)(F)c1cccc(Nc2nccc(-c3cnn4nc(-c5ccccc5)ccc34)n2)c1 [GW819077X]
- remaining activity at 100 µM (E. coli MurC; [2]): 50%
- remaining activity at 100 µM (E. coli MurD): 63%
- remaining activity at 100 µM (E. coli MurF; Table S1, PKIS screening): 58%

Compound: COc1ccc(-c2cc3c(N)ncnc3o2)cc1 [GW642138X]
- remaining activity at 100 µM (E. coli MurC; [2]): 74%
- remaining activity at 100 µM (E. coli MurD): 93%
- remaining activity at 100 µM (E. coli MurF; Table S1, PKIS screening): 81%

Compound: COc1cc2ncn(-c3cc(OCCc4ccccc4)c(C(N)=O)s3)c2cc1OC [GSK204925A]
- remaining activity at 100 µM (E. coli MurC; [2]): 56%
- remaining activity at 100 µM (E. coli MurD): 68%
- remaining activity at 100 µM (E. coli MurF; Table S1, PKIS screening): 63%

Compound: Cn1cc(C=C2C(=O)Nc3cccnc32)c2ccccc21 [GW441756X]
- remaining activity at 100 µM (E. coli MurC; [2]): 75%
- remaining activity at 100 µM (E. coli MurD): 99%
- remaining activity at 100 µM (E. coli MurF; Table S1, PKIS screening): 89%

Compound: CCn1c(-c2nonc2N)nc2ccncc21 [SB-738561]
- remaining activity at 100 µM (E. coli MurC; [2]): 78%
- remaining activity at 100 µM (E. coli MurD): 58%
- remaining activity at 100 µM (E. coli MurF; Table S1, PKIS screening): 100%

Compound: Fc1ccc(-c2nc3n(c2-c2ccncc2)CCS3)cc1 [SKF-86002-A2]
- RA [%] at 100 µM MurC (E. coli MurC; Table S1, PKIS screening): 75%
- RA [%] at 100 µM MurD (E. coli MurD): 91
- RA [%] at 100 µM MurF (E. coli MurF; Table S1, PKIS screening): 97%

Compound: CCCN1CCC(c2ccc(Nc3nc(Nc4cc(F)ccc4C(N)=O)c4cc[nH]c4n3)c(OC)c2)CC1 [GSK1326255A]
- remaining activity at 100 µM (E. coli MurC; [2]): 0%
- remaining activity at 100 µM (E. coli MurD): 9%
- IC50 (E. coli MurD; printed in the RA cell of Table S1, read-out: IC50 MurD): 39 µM
- remaining activity at 100 µM (E. coli MurF; Table S1, PKIS screening): 4%

Compound: COC(=O)c1ccc2c(c1)C(=Cc1cc(Br)c(O)c(Br)c1)C(=O)N2 [GW405841X]
- remaining activity at 100 µM (E. coli MurC; [2]): 93%
- remaining activity at 100 µM (E. coli MurD): 82%
- remaining activity at 100 µM (E. coli MurF; Table S1, PKIS screening): 75%

Compound: NS(=O)(=O)c1cccc(-c2cc3ccncc3cc2OCc2ccccc2)c1 [GSK980961A]
- remaining activity at 100 µM (E. coli MurC; [2]): 80%
- remaining activity at 100 µM (E. coli MurD): 86%
- remaining activity at 100 µM (E. coli MurF; Table S1, PKIS screening): 66%

Compound: CC1=C(C(=O)Nc2ccc3[nH]ncc3c2)C(c2ccc(F)cc2)NC(=O)N1 (stereo not drawn) [GSK180736A]
- remaining activity at 100 µM (E. coli MurC; [2]): 80%
- remaining activity at 100 µM (E. coli MurD): 79%
- remaining activity at 100 µM (E. coli MurF; Table S1, PKIS screening): 85%
